One assay addresses T1, IL17A (Homo sapiens, UniProt Q16552).
T1 sequence (Q16552 24-155): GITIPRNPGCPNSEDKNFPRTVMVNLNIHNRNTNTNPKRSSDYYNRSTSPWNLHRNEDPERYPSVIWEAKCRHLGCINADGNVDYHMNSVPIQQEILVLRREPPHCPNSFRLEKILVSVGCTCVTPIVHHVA
In words: Surface Plasmon Resonance (SPR) analysis of compound interactions with IL17A. As to conditions: SPR binding to IL17A. In short, it runs like this:
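His-tagged IL17A captured on a Ni-NTA chip; five 2- or 3-fold compound dilutions from 50 μM injected for 180 s, 120 s dissociation, in HEPES-saline buffer with 0.5% DMSO. Baseline-subtracted sensorgrams fitted 1:1 for ka, kd and KD; Kd also derived from binding extent per concentration.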

In assay [1] the test system is IL-17-induced GROα secretion from HT-29 cells. Briefly: HT-29 cellular assay (IL-17-induced GROα secretion). It counts as cell-based. As to conditions: Homo sapiens. As for the experimental part: To test the ability of a compound of the invention to neutralize or antagonize IL-17 bioactivity, the following cell-based assay was used. IL-17 can stimulate epithelial cells and other cells to secrete GROα. The ability of a compound of the invention to neutralize IL-17-induced GROα secretion from the human colorectal adenocarcinoma epithelial cell line HT-29 is tested in this assay.
HT-29 cells (human colorectal adenocarcinoma epithelial cells, ATCC #HTB-38), were maintained in culture/assay medium in tissue culture-treated flasks using standard techniques. HT-29 cells were grown in tissue culture flasks until they were 50-80% confluent on the day before the assay. The day before the assay, the cells were detached from the culture flasks with trypsin+EDTA. The trypsin was inactivated with complete assay medium. HT-29 cells were then centrifuged at 500×g for 5 minutes at room temperature. The cell pellet was then re-suspended in Defined Keratinocyte SFM (Invitrogen #10766019)+10% FCS and 50,000 HT-29 cells (in 100 μl) were added to each treatment well of the 96-well plates. The 96-well plates were placed in a tissue culture incubator (37° C., 5% CO2) overnight. The next day, the media was removed from the cells and the cells were washed twice with Defined Keratinocyte SFM. In a separate 96-well plate, compounds to be tested were serially diluted in Defined Keratinocyte SFM and run in triplicate in 100 μL total volume. To these compound samples were then added 100 μL of human IL-17 at a concentration of 20 ng/mL in Defined Keratinocyte SFM for serum-free assays. 150 μL of the compound/IL-17 mixture was then added to the cells from which the media has previously been removed. The cells were grown for 48 hours in Defined Keratinocyte SFM in a tissue culture incubator (37° C., 5% CO2).
At the end of the incubation, the plates are centrifuged (500×g for 5 minutes at room temperature), and the cell culture media is transferred to polypropylene 96-well plates. The supernatant was used neat in the ELISA. GROα levels are measured with a GROα sandwich ELISA (R+D Systems DuoSet #DY275E), as per the manufacturer's instructions. The ELISA plates were previously coated with mAb 275 (R+D Systems) at 4 μg/mL. GROα is detected using biotinylated goat anti-human GROα (R+D Systems BAF275) at 200 ng/mL using TMB as a substrate. At the end of the ELISA reactions, plates are read at 450 nm on a microplate reader and compared to a standard calibration curve.

What is called Kd is the concentration at which binding is half-saturated. A word on the IC50: it is the concentration that inhibits the measured activity by half. Read a high IC50 as weaker potency in that assay.

Structures are written as SMILES.

On to `COC(=O)[C@@H]1CCCCNC(=O)CCCNC(=O)[C@@H](Cc2ccc(NC(=O)[C@H](Cc3ccccc3F)NC(=O)Cc3ccccc3)cc2)NC(=O)CC2(CCCC2)CC(=O)N1` [Compound 106], for which the equilibrium dissociation constant (Kd) on IL17A lay within 100 to 1000 nM. The compound further showed a half-inhibitory concentration (IC50) in assay [1] greater than 10000 nM. The like results for `COC(=O)[C@@H]1CCCCNC(=O)CNC(=O)[C@@H](Cc2ccc(NC(=O)[C@H](Cc3ccccc3Cl)NC(=O)Cc3ccccc3)cc2)NC(=O)CC2(CCCC2)CC(=O)N1` [Compound 143] were, in that order, less than 100 nM and less than 1000 nM. `COC(=O)[C@@H]1CCCCNC(=O)CNC(=O)[C@@H](Cc2ccc(NC(=O)[C@H](Cc3ccccc3Cl)NC(=O)c3ccccc3)cc2)NC(=O)CC2(CCCC2)CC(=O)N1` [Compound 144] gave a Kd at IL17A of less than 100 nM. Further, the IC50 in assay [1] is 1000 to 10000 nM. The matching figures for `O=C1CNC(=O)[C@@H](Cc2ccc(NC(=O)[C@H](Cc3ccccc3Cl)NC(=O)Cc3ccccc3)cc2)NC(=O)CC2(CCCC2)CC(=O)NCCCCCN1` [Compound 159]: less than 100 nM and less than 1000 nM.

Compound `O=C1CNC(=O)[C@@H](Cc2ccc(NC(=O)[C@H](Cc3ccc(Cl)cc3Cl)NC(=O)Cc3ccccc3)cc2)NC(=O)CC2(CCCC2)CC(=O)NCCCCCN1` [Compound 185] displayed an equilibrium dissociation constant (Kd) at IL17A of less than 100 nM. For the same compound, the 50% inhibitory concentration (IC50) in assay [1] lay within 1000 to 10000 nM. Consider `O=C1CNC(=O)[C@@H](Cc2ccc(NC(=O)[C@@H](NC(=O)Cc3ccccc3)C3CCCCC3)cc2)NC(=O)CC2(CCCC2)CC(=O)NCCCCCN1` [Compound 186], for which, on IL17A, the Kd was less than 100 nM. On to `O=C1CNC(=O)[C@@H](Cc2ccc(NC(=O)[C@H](Cc3ccc(Cl)cc3Cl)NC(=O)Cc3ccc(O)cc3)cc2)NC(=O)CC2(CCCC2)CC(=O)NCCCCCN1` [Compound 191], for which the Kd on IL17A was less than 100 nM. In assay [1], this compound registered an IC50 of less than 1000 nM. On to `O=C1CNC(=O)[C@@H](Cc2ccc(NC(=O)[C@H](Cc3ccccc3Cl)NC(=O)c3cccnc3)cc2)NC(=O)CC2(CCCC2)CC(=O)NCCCCCN1` [Compound 194], for which, on IL17A, the Kd is less than 100 nM.

Consider `O=C1CNC(=O)[C@@H](Cc2ccc(NC(=O)[C@H](Cc3ccccc3Cl)NC(=O)Cc3ccccn3)cc2)NC(=O)CC2(CCCC2)CC(=O)NCCCCCN1` [Compound 226], for which, on IL17A, the dissociation constant Kd was less than 100 nM.
